Results reported in the NIST ThermoML archive (doi:10.1016/j.fluid.2007.04.030).

Experiment: xn = mol fraction of the nth substance listed
Settings: 101 kPa, Liquid

COc1cc2c(cc1O)CC1c3c(cc(O)c(OC)c3-2)CCN1C (configuration not stated) [boldine] + CCO
mass density [kg/m3]
Settings | x1 = 0.00151 | x1 = 0.0036 | x1 = 0.00737 | x1 = 0.01217 | x1 = 0.0177 | x1 = 0.02066 | x1 = 0.02425 | x1 = 0.02539
283.15 K | 801.79 | 806.58 | 815.68 | 826.69 | 838.83 | 845.25 | 852.81 | 855.28
288.15 K | 797.54 | 802.33 | 811.43 | 822.44 | 834.59 | 841.01 | 848.57 | 851.04
293.15 K | 793.27 | 798.06 | 807.16 | 818.18 | 830.32 | 836.74 | 844.3 | 846.79
298.15 K | 788.97 | 793.77 | 802.87 | 813.89 | 826.03 | 832.46 | 840.02 | 842.51
303.15 K | 784.65 | 789.45 | 798.55 | 809.57 | 821.71 | 828.14 | 835.71 | 838.2
308.15 K | 780.3 | 785.1 | 794.2 | 805.23 | 817.37 | 823.79 | 831.35 | 833.86
313.15 K | 775.91 | 780.71 | 789.81 | 800.84 | 813 | 819.42 | 826.97 | 829.49
318.15 K | 771.49 | 776.27 | 785.38 | 796.41 | 808.57 | 815 | 822.56 | 825.07
323.15 K | 767.01 | 771.79 | 780.9 | 791.93 | 804.1 | 810.54 | 818.09 | 820.6
328.15 K | 762.47 | 767.24 | 776.37 | 787.4 | 799.57 | 806.01 | 813.57 | 816.08
333.15 K | 757.86 | 762.64 | 771.76 | 782.8 | 794.98 | 801.42 | 808.99 | 811.5

COc1cc2c(cc1O)CC1c3c(cc(O)c(OC)c3-2)CCN1C (configuration not stated) [boldine] + CO
mass density [kg/m3]
Settings | x1 = 0.00099 | x1 = 0.002 | x1 = 0.00302 | x1 = 0.00406 | x1 = 0.00513 | x1 = 0.00788 | x1 = 0.01077 | x1 = 0.01696 | x1 = 0.02389
283.15 K | 804.63 | 808.15 | 811.7 | 815.24 | 818.83 | 827.92 | 837.15 | 856.15 | 875.72
288.15 K | 799.96 | 803.48 | 807.04 | 810.59 | 814.19 | 823.28 | 832.53 | 851.55 | 871.15
293.15 K | 795.27 | 798.79 | 802.35 | 805.91 | 809.51 | 818.62 | 827.88 | 846.93 | 866.56
298.15 K | 790.57 | 794.1 | 797.66 | 801.22 | 804.83 | 813.95 | 823.21 | 842.29 | 861.96
303.15 K | 785.86 | 789.39 | 792.96 | 796.52 | 800.14 | 809.27 | 818.54 | 837.63 | 857.34
308.15 K | 781.12 | 784.66 | 788.23 | 791.8 | 795.42 | 804.56 | 813.85 | 832.96 | 852.69
313.15 K | 776.35 | 779.89 | 783.47 | 787.05 | 790.67 | 799.82 | 809.13 | 828.27 | 848.03
318.15 K | 771.55 | 775.1 | 778.68 | 782.26 | 785.89 | 795.05 | 804.37 | 823.55 | 843.34
323.15 K | 766.71 | 770.26 | 773.84 | 777.43 | 781.07 | 790.25 | 799.58 | 818.78 | 838.61
328.15 K | 761.83 | 765.38 | 768.97 | 772.57 | 776.2 | 785.4 | 794.75 | 813.97 | 833.84
333.15 K | 756.89 | 760.45 | 764.05 | 767.65 | 771.29 | 780.5 | 789.86 | 809.11 | 829.02
